Patent US8501794B2, “Compounds as cannabinoid receptor ligands” (priority 2007, dated 2013)
Read-outs that look alike come from different tables or passages of the source.

Legend:
rat CB2 [1] = target: T1, rat CB2 (Rattus norvegicus, UniProt Q9QZN9); assay: rat CB2 cyclase functional assay (HitHunter cAMP, HEK cells); type: cell-based; parameters: expressed in transfected cells; host or cells: HEK; settings: forskolin 18 μM
T1 sequence (Q9QZN9 1-360): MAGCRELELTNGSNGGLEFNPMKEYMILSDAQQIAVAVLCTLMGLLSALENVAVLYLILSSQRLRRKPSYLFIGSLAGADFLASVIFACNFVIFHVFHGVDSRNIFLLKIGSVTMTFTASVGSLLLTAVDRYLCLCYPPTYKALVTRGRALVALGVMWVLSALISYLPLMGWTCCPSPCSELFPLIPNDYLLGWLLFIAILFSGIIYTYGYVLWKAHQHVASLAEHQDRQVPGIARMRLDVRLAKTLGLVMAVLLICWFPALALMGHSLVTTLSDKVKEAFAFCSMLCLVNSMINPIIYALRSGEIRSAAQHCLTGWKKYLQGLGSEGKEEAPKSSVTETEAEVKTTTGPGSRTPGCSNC

human CB2 receptors = target: T2, human CB2 receptors (Homo sapiens, UniProt P34972); assay: human CB2 radioligand binding assay ([3H]CP-55,940 competition)
T2 construct: expressed in transfected cells; host or cells: HEK293

rat CB2 [2] = target: T1, rat CB2; assay: rat CB2 radioligand binding assay ([3H]CP-55,940 competition); parameters: expressed in transfected cells; host or cells: HEK293
[3] = HEK293 membranes, 0.5 nM [3H]CP-55,940, read-out: human CB2 (Ki)

T2 sequence (P34972 whole entry): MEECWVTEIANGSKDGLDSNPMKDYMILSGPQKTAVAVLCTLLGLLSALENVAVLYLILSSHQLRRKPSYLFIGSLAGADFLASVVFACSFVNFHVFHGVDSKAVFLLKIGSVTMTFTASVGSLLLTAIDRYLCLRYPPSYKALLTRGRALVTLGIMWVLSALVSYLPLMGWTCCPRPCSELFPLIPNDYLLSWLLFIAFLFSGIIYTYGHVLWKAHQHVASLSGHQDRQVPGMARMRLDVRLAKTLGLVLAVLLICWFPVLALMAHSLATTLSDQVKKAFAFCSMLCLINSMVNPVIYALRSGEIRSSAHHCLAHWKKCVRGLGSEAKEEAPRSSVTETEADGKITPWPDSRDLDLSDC

How did the EC50 (rat CB2 [1]) turn out when `CCCCc1cn(C(C)(C)C)s/c1=N\C(=O)C1(C)CCC(C(=O)OC)C1(C)C` (racemic) [Example 92, Methyl 3-({[(5Z)-4-butyl-2-tert-butylisothiazol-5(2H)-ylidene]amino}carbonyl)-2,2,3-trimethylcyclopentanecarboxylate] was run?
The EC50 was 0.45 nM.

What about the Ki (human CB2 receptors) of the same molecule?
Its Ki is 0.2 nM.

What about the Ki (rat CB2 [2]) of the same molecule?
Its Ki is 0.25 nM.

Which EC50 (rat CB2 [1]) does the source give for `CCCCc1cn(C(C)(C)C)s/c1=N\C(=NC#N)c1cc(Cl)ccc1OC` [Example 110, N-[(5Z)-4-butyl-2-tert-butylisothiazol-5(2H)-ylidene]-5-chloro-N′-cyano-2-methoxybenzenecarboximidamide] here?
Its EC50 is 0.12 nM.

And the Ki (human CB2 receptors)?
The Ki was 3 nM.

What about the Ki (rat CB2 [2]) of the same molecule?
The Ki was 1.6 nM.

For `CCCCc1cn(C(C)(C)C(F)(F)F)s/c1=N\C(=O)c1cc(Cl)ccc1OC` [Example 151, N-[(5Z)-4-butyl-2-(2,2,2-trifluoro-1,1-dimethylethyl)isothiazol-5(2H)-ylidene]-5-chloro-2-methoxybenzamide], which EC50 (rat CB2 [1]) is on record?
Its EC50 is 0.072 nM.

What about the Ki (human CB2 receptors) of the same molecule?
The Ki was 9.1 nM.

What about the Ki (rat CB2 [2]) of the same molecule?
The Ki was 0.4 nM.

Which EC50 (rat CB2 [1]) does the source give for `CCCCc1cn(C(C)(C)C)s/c1=N\C(=O)C1(C)CCC(C(=O)O)C1(C)C` (stereo not shown) [Example 96, 3-({[(5Z)-4-butyl-2-tert-butylisothiazol-5(2H)-ylidene]amino}carbonyl)-2,2,3-trimethylcyclopentanecarboxylic acid] here?
Its EC50 is 1.4 nM.

And the Ki (human CB2 receptors)?
The Ki was 20 nM.

What about the Ki (rat CB2 [2]) of the same molecule?
Its Ki is 27 nM.

How did the EC50 (rat CB2 [1]) turn out when `COc1ccc(Cl)cc1C(=O)/N=c1\sn(C(C)(C)C)cc1CC(C)C` [Example 37, N-[(5Z)-2-tert-butyl-4-isobutylisothiazol-5(2H)-ylidene]-5-chloro-2-methoxybenzamide] was run?
The EC50 was 1.3 nM.

What about the Ki (human CB2 receptors) of the same molecule?
Its Ki is 31 nM.

What about the Ki (rat CB2 [2]) of the same molecule?
The Ki was 5.8 nM.

What does the source list for `COc1ccc(Cl)cc1C(=O)/N=c1\sn(C(C)(C)C)cc1OCCCCF` [Example 158, N-[(5Z)-2-tert-butyl-4-(4-fluorobutoxy)isothiazol-5(2H)-ylidene]-5-chloro-2-methoxybenzamide]?
EC50 (rat CB2 [1]): 0.046 nM; Ki (human CB2 receptors): 48 nM; Ki (rat CB2 [2]): 6.1 nM

How did the EC50 (rat CB2 [1]) turn out when `CCCCc1cn(C(C)(C)C)s/c1=N\S(=O)(=O)c1cccc(Cl)c1Cl` [Example 122, N-[(5Z)-4-butyl-2-tert-butylisothiazol-5(2H)-ylidene]-2,3-dichlorobenzenesulfonamide] was run?
The EC50 was 1.9 nM.

What about the Ki (human CB2 receptors) of the same molecule?
Its Ki is 18 nM.

And the Ki (rat CB2 [2])?
The Ki was 11 nM.

Which EC50 (rat CB2 [1]) does the source give for `COc1ccc(Cl)cc1C(=O)/N=c1\sn(C(C)(C)C)cc1CC1CC1` [Example 8, N-[(5Z)-2-tert-butyl-4-(cyclopropylmethyl)isothiazol-5(2H)-ylidene]-5-chloro-2-methoxybenzamide] here?
The EC50 was 1 nM.

And the Ki (human CB2 receptors)?
The Ki was 4 nM.

What about the Ki (rat CB2 [2]) of the same molecule?
Its Ki is 1.1 nM.

What does the source list for `COc1ccc(Cl)cc1C(=O)/N=c1\sn(C(C)(C)C)cc1CCN=[N+]=[N-]` [Example 14, N-[(5Z)-4-(2-azidoethyl)-2-tert-butylisothiazol-5(2H)-ylidene]-5-chloro-2-methoxybenzamide]?
EC50 (rat CB2 [1]): 0.71 nM; Ki (human CB2 receptors): 26 nM; Ki (rat CB2 [2]): 2.4 nM

`CCCCc1cn(C(C)(C)C)s/c1=N\C(=O)[C@@]1(C)CC[C@@H](C(=O)N2CCC2)C1(C)C` [Example 222, (1S,3R)-3-(azetidin-1-ylcarbonyl)-N-[(5Z)-4-butyl-2-tert-butylisothiazol-5(2H)-ylidene]-1,2,2-trimethylcyclopentanecarboxamide] was tested. Which EC50 (rat CB2 [1]) did it give?
The EC50 was 5.7 nM.

What about the Ki (human CB2 receptors) of the same molecule?
Its Ki is 170 nM.

What about the Ki (rat CB2 [2]) of the same molecule?
Its Ki is 70 nM.

What does the source list for `CCCCc1cn(C(C)(C)C)s/c1=N\C(=O)[C@@H]1CC[C@](C)(C(=O)OC)C1(C)C` [Example 204, Methyl (1S,3R)-3-({[(5Z)-4-butyl-2-tert-butylisothiazol-5(2H)-ylidene]amino}carbonyl)-1,2,2-trimethylcyclopentanecarboxylate]?
EC50 (rat CB2 [1]): 0.34 nM; Ki (human CB2 receptors): 0.6 nM

For `CCCCc1cn(C(C)(C)C)s/c1=N\C(=O)[C@]1(C)CC[C@H](C(=O)NCC)C1(C)C` [Example 201, (1R,3S)—N^1-[(5Z)-4-butyl-2-tert-butylisothiazol-5(2H)-ylidene]-N^3-ethyl-1,2,2-trimethylcyclopentane-1,3-dicarboxamide], which EC50 (rat CB2 [1]) is on record?
The EC50 was 3.5 nM.

And the Ki (human CB2 receptors)?
Its Ki is 180 nM.

`CCCCc1cn(C(C)(C)C)s/c1=N\C(=O)[C@]1(C)CC[C@H](C(=O)NCCO)C1(C)C` [Example 203, (1R,3S)—N^1-[(5Z)-4-butyl-2-tert-butylisothiazol-5(2H)-ylidene]-N^3-(2-hydroxyethyl)-1,2,2-trimethylcyclopentane-1,3-dicarboxamide] was tested. Which EC50 (rat CB2 [1]) did it give?
The EC50 was 3.9 nM.

And the Ki (human CB2 receptors)?
The Ki was 70 nM.

For `CCCCc1cn(C(C)(C)C)s/c1=N\C(=O)c1cc(S(C)(=O)=O)ccc1OC` [Example 48, N-[(5Z)-4-butyl-2-tert-butylisothiazol-5(2H)-ylidene]-2-methoxy-5-(methylsulfonyl)benzamide], which EC50 (rat CB2 [1]) is on record?
Its EC50 is 0.56 nM.

And the Ki (rat CB2 [2])?
Its Ki is 22 nM.

`CCCCc1cn(C(C)(C)C)s/c1=N\C(=O)c1cc(CF)ccc1OC` [Example 66, N-[(5Z)-4-butyl-2-tert-butylisothiazol-5(2H)-ylidene]-5-(fluoromethyl)-2-methoxybenzamide] was tested. Which Ki (human CB2 receptors; [3]) did it give?
Its Ki is 103 nM.

And the Ki (rat CB2 [2])?
Its Ki is 12 nM.

With `CCCCc1cn(C(C)(C)C)s/c1=N\C(=O)[C@]1(C)CC[C@H](NC(=O)N2CCOCC2)C1(C)C` [Example 250, N-[(1S,3R)-3-({[(5Z)-4-butyl-2-tert-butylisothiazol-5(2H)-ylidene]amino}carbonyl)-2,2,3-trimethylcyclopentyl]morpholine-4-carboxamide] as the molecule, how does the Ki (human CB2 receptors) read?
The Ki was 48 nM.

And the Ki (rat CB2 [2])?
The Ki was 75 nM.

Which results are given for `CCCCc1cn(C(C)(C)C)s/c1=N\C(=O)[C@]1(C)CC[C@H](C(=O)NC[C@H]2CCCO2)C1(C)C` [Example 214, (1R,3S)—N^1-[(5Z)-4-butyl-2-tert-butylisothiazol-5(2H)-ylidene]-1,2,2-trimethyl-N^3-[(2R)-tetrahydrofuran-2-ylmethyl]cyclopentane-1,3-dicarboxamide]?
Ki (human CB2 receptors): 130 nM; Ki (rat CB2 [2]): 83 nM

How did the Ki (human CB2 receptors; [3]) turn out when `CCCCc1cn(C(C)(C)C)s/c1=N\C(=O)c1cc(C(F)(F)F)ccc1OC[C@@H]1CCC(=O)N1` [Example 194, N-[(5Z)-4-butyl-2-tert-butylisothiazol-5(2H)-ylidene]-2-{[(2S)-5-oxopyrrolidin-2-yl]methoxy}-5-(trifluoromethyl)benz amide] was run?
The Ki was 170 nM.

What about the Ki (rat CB2 [2]) of the same molecule?
Its Ki is 41 nM.

`COC(=O)CCCc1cn(C(C)(C)C)s/c1=N\C(=O)c1cc(C#N)ccc1OC` [Example 46, Methyl 4-{(5Z)-2-tert-butyl-5-[(5-cyano-2-methoxybenzoyl)imino]-2,5-dihydroisothiazol-4-yl}butanoate] was tested. Which EC50 (rat CB2 [1]) did it give?
The EC50 was 0.56 nM.

And the Ki (rat CB2 [2])?
The Ki was 17 nM.

With `CCCCc1cn(C(C)(C)C)s/c1=N\C(=O)[C@]1(C)CC[C@H](C(=O)NC[C@@H]2CCCO2)C1(C)C` [Example 226, (1R,3S)—N^1-[(5Z)-4-butyl-2-tert-butylisothiazol-5(2H)-ylidene]-1,2,2-trimethyl-N^3-[(2S)-tetrahydrofuran-2-ylmethyl]cyclopentane-1,3-dicarboxamide] as the molecule, how does the Ki (human CB2 receptors) read?
Its Ki is 250 nM.

What about the Ki (rat CB2 [2]) of the same molecule?
Its Ki is 132 nM.

With `CCCCc1cn(C(C)(C)C)s/c1=N\C(=O)[C@]1(C)CC[C@H](C(=O)NCCCO)C1(C)C` [Example 213, (1R,3S)—N^1-[(5Z)-4-butyl-2-tert-butylisothiazol-5(2H)-ylidene]-N^3-(3-hydroxypropyl)-1,2,2-trimethylcyclopentane-1,3-dicarboxamide] as the molecule, how does the Ki (human CB2 receptors; [3]) read?
Its Ki is 140 nM.

What about the Ki (rat CB2 [2]) of the same molecule?
The Ki was 45 nM.

Which results are given for `CCCCc1cn(C(C)(C)C)s/c1=N\C(=O)[C@]1(C)CC[C@H](NC(=O)c2ccccc2)C1(C)C` [Example 251, N-[(1S,3R)-3-({[(5Z)-4-butyl-2-tert-butylisothiazol-5(2H)-ylidene]amino}carbonyl)-2,2,3-trimethylcyclopentyl]benzamide]?
Ki (human CB2 receptors): 60 nM; Ki (rat CB2 [2]): 60 nM

For `CCCCc1cn(C(C)(C)C)s/c1=N\C(=O)[C@@]1(C)CC[C@@H](C(=O)NCCC)C1(C)C` [Example 219, (1S,3R)—N^1-[(5Z)-4-butyl-2-tert-butylisothiazol-5(2H)-ylidene]-1,2,2-trimethyl-N^3-propylcyclopentane-1,3-dicarboxamide], which Ki (human CB2 receptors; [3]) is on record?
Its Ki is 204 nM.

And the Ki (rat CB2 [2]; HEK293 membranes, 0.5 nM [3H]CP-55,940, read-out: rat CB2 (Ki))?
Its Ki is 159 nM.

Which results are given for `COc1ccc(Cl)cc1C(=O)/N=c1\sn(C(C)(C)C)c(C)c1NC(=O)OC(C)(C)C` [Example 162, Tert-butyl [(5Z)-2-tert-butyl-5-{[(5-chloro-2-methoxyphenyl)carbonyl]imino}-3-methyl-2,5-dihydroisothiazol-4-yl]carbamate]?
Ki (human CB2 receptors; [3]): 120 nM; Ki (rat CB2 [2]): 47 nM

For `CCCCc1cn(C(C)(C)C)s/c1=N\C(=O)[C@@H]1CC[C@](C)(C(=O)O)C1(C)C` [Example 205, (1S,3R)-3-({[(5Z)-4-butyl-2-tert-butylisothiazol-5(2H)-ylidene]amino}carbonyl)-1,2,2-trimethylcyclopentanecarboxylic acid], which EC50 (rat CB2 [1]) is on record?
The EC50 was 11.7 nM.

And the Ki (human CB2 receptors)?
Its Ki is 21 nM.

Which results are given for `CCCCc1cn(C(C)(C)C)s/c1=N\C(=O)[C@]1(C)CC[C@H](NC(C)=O)C1(C)C` [Example 256, (1R,3S)-3-(acetylamino)-N-[(5Z)-4-butyl-2-tert-butylisothiazol-5(2H)-ylidene]-1,2,2-trimethylcyclopentanecarboxamide]?
Ki (human CB2 receptors): 19 nM; Ki (rat CB2 [2]): 28 nM

How did the Ki (human CB2 receptors) turn out when `CC(C)(C)n1cc(Cc2ccco2)/c(=N/C(=O)c2cccc(C(F)(F)F)c2F)s1` [Example 70, N-[(5Z)-2-tert-butyl-4-(2-furylmethyl)isothiazol-5(2H)-ylidene]-2-fluoro-3-(trifluoromethyl)benzamide] was run?
Its Ki is 34 nM.

What about the Ki (rat CB2 [2]) of the same molecule?
The Ki was 4.2 nM.
